# Source: patent US11385234B2, “Methods and systems for detecting an analyte or classifying a sample” (Commonwealth Scientific and Industrial Research Organisation, priority 2012, dated 2022)
# Values joined by “and” are separate entries in the source; they are usually repeats but may differ in a detail not shown here. Equal entries are not always repeated.
# What was measured:
# GFP^2-RG-RLuc biosensor = assay: Hybrid BRET (BRET^H) thrombin cleavage assay, microplate; type: biochemical; details: 54 nM thrombin, 90 minutes, 30° C.; 1 μM fusion protein, 5 μM native coelenterazine
# Source text: A combination of BRET^1 and BRET^2 techniques was used and referred to herein as hybrid BRET. Specifically, RLuc with native coelenterazine substrate was used as the bioluminescent donor and GFP^2 as the acceptor molecule. The donor and acceptor were linked by a peptide sequence containing the thrombin cleavage site ([…]↓ GSLQ (RG)) (GFP^2-RG-RLuc) and expressed in E. coli.
# GFP^2-RG-RLuc biosensor was expressed and purified as reported previously (Dacres et al. 2009a). The purified fusion protein was in thrombin cleavage buffer (10 mM Tris (pH 8.0), 100 mM NaCl, 1 mM EDTA). The final concentration of the native coelenterazine substrate (Biosynth) used for microfluidic based assays was 58.6 μM and 5 μM for plate-reader based assays. 1 unit (U)/μl thrombin protease (Amersham Biosciences) solution was prepared in 1× phosphate buffer saline (PBS).
# Simultaneous dual emission hybrid BRET measurements were carried out both in a microplate using a SpectraMax M2 spectrofluorimeter (Molecular Devices) and in the microfluidics apparatus described below. Spectral scans of BRET constructs were recorded using the luminescence scan mode between 400 and 650 nm on addition of 5 μM native coelenterazine substrate to 1 μM of biosensor. […]
# Using the microplate spectrometer, hybrid BRET ratios were calculated as the ratio of bioluminescence emissions measured at 500 nm and 470 nm. […]
# [1] = test system: GFP^2-RG-RLuc thrombin sensor; assay: BRET^2 thrombin sensor in microfluidic chip with optical detection chamber; type: biochemical
# Source text: In a BRET^2 system, Renilla luciferase (RLuc) with coelenterazine 400a (CLZ400A) substrate was used as the photon donor and GFP^2 was used as the acceptor molecule. As the luminescence of BRET^2 is 100-fold smaller than that of the BRET^1.5, the BRET^2 reaction requires efficient mixing at optimal temperature, detection chamber size, flow rates and concentrations to produce highest bioluminescence signal. Thus, this system is used to evaluate different mixing mechanisms (FIG. 8), reaction chamber designs and reaction conditions.
# PDMS chips with a Y-shaped microchannel with three mixing elements (FIG. 8), with a rectangular cross section in the microchannels (200 μm in width and 30 μm in height) was used to monitor BRET^2 assays. The detection chambers with different diameter and height were located at the end of the microchannels. The emitting bioluminescence was collected by a multimode optical fiber located underneath the detection chamber. The emissions will be split by dichroic block and going through two band pass filters corresponding to emission band of the donor (430 nm-455 nm) and the emission band of the acceptor (515 nm-555 nm) before going into two corresponding photomultiplier tubes (Hamamatsu H7421). […]
# Approximately 75% decrease in BRET^2 signal was measured for on-chip reaction at input flow rate of 50 μL/hr (FIG. 12).
# [2] = test system: BRET^2 based thrombin biosensor; details: cited from earlier work
substance,measurement,setting,value
thrombin,BRET^H ratio following thrombin cleavage,GFP^2-RG-RLuc biosensor,0.75±0.04 and 0.79±0.05
same,decrease in BRET^H ratio following thrombin cleavage,GFP^2-RG-RLuc biosensor,approximately 32%
same,change in BRET^2 ratio (GFP/RLuc) after digestion of the sensor,[1]; 270 pM thrombin,approximately tenfold
same,"decrease in BRET^2 signal, on-chip reaction","[1]; 540 nM thrombin, 1 μM sensor, 12.5 μM substrate, two-inlet device, 50 μL/hr",Approximately 75%
same,kcat of thrombin,[2],≈ 85 s^−1
